“Also recorded” adds a separate entry of the source.
Tests used:
[1] = test system: serum circulating Fatty Acid Synthase (cFAS); assay: Serum cFAS (ELISA) in subjects with T2D and PAD with or without Cilostazol therapy; format: in vivo, human; conditions: subjects with T2D and PAD receiving Cilostazol therapy vs subjects not receiving the medication
Procedure: FIG. 9A-FIG. 9C is a series of graphs showing serum cFAS is a biomarker for disease subjects with PAD and T2D. cFAS was evaluated using 96-well ELISA (Aviva Systems Biology) FIG. 9A. Subjects with severe PAD (n=29) had more serum cFAS than subjects with moderate PAD (n=30), and subjects with no PAD (n=22). FIG. 9B. cFAS is elevated in subjects with T2D (n=40) compared to no T2D (n=41). FIG. 9C. cFAS is also elevated in subjects with DCSI ≥5 (n=15) compared to DCSI <5 (n=14). FIG. 11A-FIG. 11B is a pie chart and box plot showing cilostazol in our subjects with T2D and PAD. FIG. 11A. In our current clinical practice, Cilostazol therapy is currently administered to only a minority of subjects, and therefore the majority of patients would likely meet study eligibility criteria. FIG. 11B. Subjects with T2D and PAD who receive Cilostazol therapy have lower cFAS (whiskers indicate max and min values) in study cohort. Over a 1 year period, we collected serum specimens from subjects with peripheral arterial disease (PAD; severe or moderate), and/or T2D. Serum cFAS content and enzymatic activity was evaluated as a potential biomarker for PAD and T2D disease severity. […] We retrospectively reviewed patient encounters at the Barnes-Jewish Hospital vascular surgery clinic over a 6-month period to determine the prevalence of Cilostazol prescriptions among subjects with T2D, PAD and/or FWs.

[2] = MR-derived skeletal muscle blood flow (SMBF) in subjects with T2D with or without Cilostazol therapy; format: in vivo, human; conditions: subjects with T2D, 12 months of Cilostazol vs not treated, at rest and with exercise; critically ischemic limbs (ABI <0.5)
Excerpt: MG=Medial Gastrocnemius, SOL=Soleus, color bar unit=ml/min/100 g.

[3] = cited from earlier work
[4] = cited from earlier work; remark: listed apart in the source
[5] = cited from earlier work; remark: listed apart in the source
[6] = cited from earlier work; remark: listed apart in the source
[7] = 3 to 6 month course of Cilostazol therapy
[8] = 8-week course, patients with T2D and PAD

O=C1CCc2cc(OCCCCc3nnnn3C3CCCCC3)ccc2N1 [Cilostazol, 6-[4-(1-cyclohexyl-1H-tetrazol-5-yl)butoxy]-3,4-dihydrocarbostyril]
serum cFAS [1]: significantly lower
skeletal muscle blood flow (SMBF), lower leg perfusion by MR [2]: improved perfusion; also recorded: Subject not treated with Cilostazol (top) demonstrated less lower leg perfusion
pro-atherogenic / serum lipid profiles [3, 7]: improve; also recorded: normalize
total cholesterol and serum LDL [3, 7]: decrease
risk of total vascular events, especially cerebrovascular events ([3]; meta-analysis of 12 RCTs, patients with T2D): significantly decrease
PUFA to SFA ratio ([3]; previous literature): alter
lower extremity ischemic symptoms [4, 8]: improving
peripheral skin perfusion detected with transcutaneous oxygen pressure (TcPO2) [4, 8]: improve
onset of FWs ([4]; patients with T2D): prevent
peripheral skin perfusion ([4]; previous studies): enhance
wound healing ([4]; previous studies): promote
effect on Class III-IV heart failure ([5]; FDA black-box warning in this patient population): can exacerbate the condition
minor side effect: abdominal pain ([5]; incidence): 5%
minor side effect: arthritis ([5]; incidence): 2%
minor side effect: cough ([5]; incidence): 4%
minor side effect: diarrhea ([5]; incidence): 19%
minor side effect: dizziness ([5]; incidence): 10%
minor side effect: dyspepsia ([5]; incidence): 6%
minor side effect: flatulence ([5]; incidence): 3%
minor side effect: headaches ([5]; incidence): 34%
minor side effect: myalgia ([5]; incidence): 3%
minor side effect: nausea ([5]; incidence): 7%
minor side effect: pharyngitis ([5]; incidence): 10%
minor side effect: skin rash ([5]; incidence): 2%
minor side effect: vertigo ([5]; incidence): 2%
minor side effect: vomiting ([5]; incidence): 2%
increase in walking distance ([6]; 3-month treatment course, patients with claudication): 35-50%
limb function (walking distance) ([6]; previous studies): improve
